Patent US7220727B2, “Aminoglycosides as antibiotics” (priority 2000, dated 2007)

Tests used:
[1] = system: Enterobacter cloacae ATCC 3047; test: MIC, microdilution broth, E. cloacae; assay type: cell-based
Text: (§1) Escherichia coli JM83 is an antibiotic-sensitive laboratory strain. E. coli JM83 (APH(3′)-I) contains high copies (500–700 copies per cell) of plasmid pUC19 with the cloned kanamycin resistance gene from transposon Tn903 that produces the type I aminoglycoside 3′-phosphotransferase. APH(3′)-I is the most common aminoglycoside phosphotransferase in gram-negative bacteria. E. coli JM83 (AAC6′/APH2″) contains a plasmid with the gene for the bifunctional aminoglycoside-modifying enzyme AAC(6′)/APH(2″), which is produced by many cocci. The enzyme is able to phosphorylate at the 2″ position and/or acetylate at the 6′ position of various aminoglycoside antibiotics to manifest resistance for the organisms that express it. Serratia marcescens ATCC 13880, Enterobacter cloacae ATCC 3047, Pseudomonas aeruginosa 66 and C43 are representative important gram-negative pathogens. Aminoglycosides by themselves or in combination with other antibiotics are often used to combat these microorganisms, especially P. aeruginosa that is often very difficult to treat. Staphylococcus aureus 3 and Enterococcus faecium 119 are representatives of the cocci. Most of these microorganisms are intrinsically resistant to aminoglycosides (poor permeability), but in combination with β-lactam antibiotics are often used to treat infections caused by these microorganisms.
(§2) The MICs of all antibiotics, including the compounds of the present invention (i.e., the compounds of formula (I)), were determined by microdilution method broth procedure. Sequential twofold dilutions of antibiotics were performed in 100 μL of Luria-Bertani (LB) broth in sterile 96-well microtiter plates. Overnight cultures of bacteria were diluted 100 times in LB broth and subgrown for several hours and 10 μL of diluted cultures were transferred into the antibiotic containing microtiter plates to bring final inoculums to 10^5 CFU/mL (CFU stands for the colony forming units). Cultures were incubated overnight at 35° C. and microtiter plates were checked from below with a reflective viewer.

Escherichia coli JM83 = test: MIC, microdilution broth, E. coli JM83; assay type: cell-based; details: E. coli JM83, antibiotic-sensitive laboratory strain
Text: as §1, with “Most of these microorganisms are intrinsically resistant to aminoglycosides (poor permeability), but in combination with β-lactam antibiotics are often used to treat infections caused by these microorganisms.” left out
(§3) The MICs of all antibiotics, including the compounds of the present invention (i.e., the compounds of formula (I)), were determined by microdilution method broth procedure. […]

Staphylococcus aureus 3 = test: MIC, microdilution broth, S. aureus; assay type: cell-based; details: S. aureus 3
Text: as §1, §2

E. coli JM83 (APH(3′)-I) = test: MIC, microdilution broth, E. coli hyper-expressing APH(3′)-I; assay type: cell-based, Escherichia coli; details: for antibiotic activity / fold lower activity than tobramycin and amikacin: E. coli hyper-expressing APH(3′)-I
Text: as §1, §2

[2] = system: any of the microorganisms tested; test: MIC, microdilution broth, whole panel of bacterial strains; assay type: cell-based; details: whole spectrum of strains
Text: as §1, with “Most of these microorganisms are intrinsically resistant to aminoglycosides (poor permeability), but in combination with β-lactam antibiotics are often used to treat infections caused by these microorganisms.” left out
as §3

[3] = system: E. coli JM83 (AAC6′/APH2″); test: MIC, microdilution broth, E. coli hyper-expressing AAC(6′)/APH(2″); assay type: cell-based, Escherichia coli; details: for antibiotic activity: E. coli hyper-expressing AAC(6′)/APH(2″)
Text: as §1, §2

[4] = system: Serratia marcescens ATCC 13880; test: MIC, microdilution broth, S. marcescens; assay type: cell-based
Text: as §1, §2

[5] = system: Pseudomonas aeruginosa 66 and C43; test: MIC, microdilution broth, P. aeruginosa; assay type: cell-based
Text: as §1, §2

Enterococcus faecium 119 = test: MIC, microdilution broth, E. faecium; assay type: cell-based; details: E. faecium 119, moderately resistant to aminoglycosides
Text: as §1, with “Most of these microorganisms are intrinsically resistant to aminoglycosides (poor permeability), but in combination with β-lactam antibiotics are often used to treat infections caused by these microorganisms.” left out
as §3

F-AS = test: Binding to A-site rRNA template; details: specific assay conditions; compared with compound 4 for F-AS

Compound	antibiotic activity [1]	antibiotic activity (Staphylococcus aureus 3)	antibiotic activity (E. coli JM83 (APH(3′)-I))	antibiotic activity [3]	antibiotic activity [4]	antibiotic activity [5]	binding to RNA (F-AS)	other results
6-O-[2-N-(3-Propylamino)ethylamino]neamine [Compound 6]	demonstrates activity	demonstrates activity	not active	not active	demonstrates activity	–	–	antibiotic activity (Escherichia coli JM83): demonstrates activity; overall antibiotic activity [2]: lower activity than compound 3
NCCNCCOC1C(NC(=O)[C@@H](O)CCN)CC(N)C(O[C@H]2O[C@H](CN)[C@@H](O)[C@H](O)[C@H]2N)C1O (stereo partly drawn) [Compound 3, 1-N-[(S)-4-Amino-2-hydroxybutanoyl]-6-O-[2-N-(2-ethylamino)ethylamino]neamine]	–	–	–	–	–	–	–	MIC values relative to compounds 4 and 5 [2]: approximately four-fold higher
NCCCNCCOC1C(NC(=O)[C@@H](O)CCN)CC(N)C(O[C@H]2O[C@H](CN)[C@@H](O)[C@H](O)[C@H]2N)C1O (stereo partly drawn) [Compound 4, 1-N-[(S)-4-Amino-2-hydroxybutanoyl]-6-O-[2-N-(3-propylamino)ethylamino]neamine]	excellent activities	good activities	good activity	good activity	excellent activities	excellent activities	–	fold lower activity than tobramycin and amikacin (E. coli JM83 (APH(3′)-I)): 8 fold; antibiotic activity (Enterococcus faecium 119): good activities
NCCCCNCCOC1C(NC(=O)[C@@H](O)CCN)CC(N)C(O[C@H]2O[C@H](CN)[C@@H](O)[C@H](O)[C@H]2N)C1O (stereo partly drawn) [Compound 5, 1-N-[(S)-4-Amino-2-hydroxybutanoyl]-6-O-[2-N-(4-butylamino)ethylamino]neamine]	excellent activities	good activities	good activity	good activity	excellent activities	excellent activities	comparable binding affinity	fold lower activity than tobramycin and amikacin (E. coli JM83 (APH(3′)-I)): 8 fold; antibiotic activity (Enterococcus faecium 119): good activities
NCCCN(CCOC1C(NC(=O)[C@@H](O)CCN)CC(N)C(O[C@H]2O[C@H](CN)[C@@H](O)[C@H](O)[C@H]2N)C1O)C(=O)[C@@H](O)CCN (stereo partly drawn) [Compound 7, 1-N,6-O-(2-N)-Bis[(S)-4-amino-2-hydroxybutanoyl]-6-O-[2-N-(3-propylamino)ethylamino]neamine]	moderate activity	–	moderate activity	moderate activity	moderate activity	moderate activity	–	MIC (E. coli JM83 (APH(3′)-I); E. coli strain producing APH(3′)-I): 64 mg/L; MIC ([3]; E. coli strain producing AAC(6′)/APH(2″)): 32 mg/L
NCCCCNCCOC1C(NC(=O)Cc2ccc(N)cc2)CC(N)C(O[C@H]2O[C@H](CN)[C@@H](O)[C@H](O)[C@H]2N)C1O (stereo partly shown) [Compound 8, 1-N-[4-Aminophenylethanoyl]-6-O-[2-N-(4-butylamino)ethylamino]neamine]	–	–	–	–	–	–	do bind to the RNA	–
NCCCCNCCOC1C(NC(=O)Cc2cccc(N)c2)CC(N)C(O[C@H]2O[C@H](CN)[C@@H](O)[C@H](O)[C@H]2N)C1O (stereo partly shown) [Compound 9, 1-N-[3-Aminophenylethanoyl]-6-O-[2-N-(4-butylamino)ethylamino]neamine]	–	–	–	–	–	–	do bind to the RNA	–
